The values below come from ChEMBL document CHEMBL1147928, “Engineering small molecule specificity in nearly identical cellular environments” (Bioorg Med Chem Lett, 2007).

pIC50: −log10 of the molar value.

One assay concerns MEF. As to the kind of experiment: Cytotoxicity against FKBP deficient MEF cells by MTT assay. As to conditions: Mus musculus. The assay is classed as cell-based.
Assay [1] in a line: Cytotoxicity against mouse wild type fibroblast cells by MTT assay. The assay is classed as cell-based. (In general: Formazan colour is commonly taken as a measure of viable cells.)

By pIC50 is commonly meant the negative decadic logarithm of the IC50, by convention in mol/L. A high value points to a small IC50. As for `CN(Cc1cnc2nc(N)nc(N)c2n1)c1ccc(C(=O)NC(CCC(=O)O)C(=O)O)cc1` (single isomer, unassigned) [METHOTREXATE], the negative-log IC50 (pIC50) is 6.92 in the assay with MEF and 6.74 in assay [1].
